The text below walks through data of US20070161592A1, “Method of treating fear” (priority 2005, published 2007).

One data set deals with male Sprague Dawley rats. The experiment in a line: Rat fear conditioning (contextual and auditory fear memory). Format: in vivo. The text has this: For one site drug infusion, 23-guage guide cannulas were implanted bilaterally into the dorsal hippocampus (CA1 region: 3.2 mm posterior to Bregma, ±1.5˜1.7 mm lateral from the midline, 1.7 mm beneath the surface of the skull). For two sites drug infusion, guide cannulas were implanted bilaterally into the dorsal hippocampus (first injection site: 2.8 mm posterior to Bregma, ±1.5 mm lateral from the midline, 1.7 mm beneath the surface of the skull; second injection site: 3.8 mm posterior to Bregma, ±1.8˜2.2 mm lateral from the midline, 1.3 mm beneath the surface of the skull). The dummy cannulas, cut 0.5 mm longer than guide cannulas, were inserted into the guide cannulas to prevent clogging and reduce the risk of infection. Rats were given at least 5 days to recover before experimentation. A 30-gauge injection cannula that was 1.5 mm lower than the guide was used for intra-hippocampal infusion. 1.0 μl Ro25-6981 (0.1 μg /μl) or saline was delivered bilaterally at the rate of 0.5 μl/min using a pump. After infusion, the cannulas were left in place for an additional 2 min to allow the solution to diffuse away from the cannula tip. Fifteen minutes later, rats were conditioned by one pairing of a tone (2.2 kHz, 96 dB, 30 s) and a foot shock (2.0 mA, 2 s) that terminated at the same time as the tone. […] Rats were returned to the conditioning chamber and allowed to stay in the chamber for 3-min without footshock.
However, the effects of local hippocampal injections of NR2B antagonists on fear conditioning have not been examined. Ro25-6981 (5 μg in 0.5 μl) was bilaterally injected into dorsal hippocampi (FIG. 8B) before conditional training. […] The NR2B specific antagonist was also injected into the ACC and hippocampus of rats and contextual and auditory fear memory was then measured. […] Hippocampal injections of a higher dose of Ro25-6981 (5 μg in 1 μl per side) bilaterally or multiple injections of the same dose (2 per side) were then tested to determine their affect on either contextual or auditory fear memory.

Data set [1] concerns NR2A, NR1, GluR1, and actin. The experiment in a line: Western blot of other membrane proteins in ACC after siRNA electroporation. Format: in vivo, mouse. Particulars: four days after electroporation, vs control siRNA. On the procedure: (§1) Equal amounts of protein from the ACC and hippocampus were separated and electrotransferred onto PDVF membranes (Invitrogen), which were probed with anti-NR2A, anti-NR2B (Chemicon), and anti-PSD-95 (ABR) and with β-actin (Sigma) as a loading control. The membranes were incubated with horseradish peroxidase-conjugated secondary antibodies (anti-mouse IgG for PSD-95 and anti-rabbit IgG for the other primary antibodies), and bands were visualized using an ECL system (Perkin Elmer). Synaptosomal membrane fractions (LP1) were prepared as previously described (Dunah and Standaert, 2001) and solubilized using 1% SDS in TEVP buffer: 10 mM Tris-HCl, pH 7.4, 1 mM EDTA, 1 mM EGTA, 1× protease inhibitor cocktail (Sigma), and 1× phosphatase inhibitor cocktail 1 and 2 (Sigma). […] Results are expressed as means±SEM. […]
(§2) To inhibit NR2B expression specifically in the prefrontal cortex, including the ACC, siRNA was bilaterally delivered against NR2B with a reporter plasmid encoding EGFP by microelectroporation (Wei et al., 2003) (FIG. 8A). […] The expression levels of other NMDAR subunits (NR2A and NR1) and AMPA receptor subunit GluR1 were measured, and actin was used as a control in the ACCs of NR2B siRNA and control siRNA electroporated mice.

Another data set relates to NR2B. The experiment in a line: Western blot of NR2B in ACC after siRNA electroporation. Format: in vivo, mouse. The conditions noted are these: four days after electroporation. On the procedure:
as §1, §2

Setting [2] is: hippocampal injections 5 μg in 1 μl per side, single or multiple (2 per side).

Entries after “also recorded” stand apart in the source; their conditions may differ.

Take `C[C@@H](CN1CCC(Cc2ccccc2)CC1)[C@@H](O)c1ccc(O)cc1` [Ro25-6981]: in the data set on male Sprague Dawley rats (0.1 μg in 1 μl bilaterally into dorsal hippocampus before fear conditioning), the contextual memory entry was “did not impair contextual fear memory; also recorded: did not produce a significant impairment”. The auditory fear memory entry in the data set with male Sprague Dawley rats (setting [2]) is “Neither single nor multiple injections of Ro25-6981 produced a significant impairment”; with male Sprague Dawley rats (injected in the ACC), “did not affect auditory fear memory”; in the data set on male Sprague Dawley rats (injected in the hippocampus) it was “did not affect auditory fear memory”. Besides, the contextual fear memory result is “Neither single nor multiple injections of Ro25-6981 produced a significant impairment” in the data set with male Sprague Dawley rats (setting [2]) and “impaired contextual fear memory; also recorded: significant reduction in contextual fear memory” in the data set on male Sprague Dawley rats (in 1 μl per side bilaterally into the ACC before conditioning, tested one day after training).

In the case of “NR2B siRNA: siRNA corresponding to NR2B, sense 5′-GGAUGAGUCCUCCAUGUUCtt-3′, antisense 5′-GAACAUGGAGGACUCAUCCtt-3′, Silencer Pre-designed siRNA ID #61879, Ambion (sense GGAUGAGUCCUCCAUGUUCTT; antisense GAACAUGGAGGACUCAUCCTT; chemistry not given here)”, in data set [1], the “expression levels of NR2A, NR1, GluR1, and actin” value was “not significantly changed”. The “NR2B expression compared to control siRNA electroporated control” value with NR2B is 64.8±4.6%.
